Data on three compounds can be found in PMC8252049 (Chemmedchem, 2021).

In general, IC50 refers to the concentration at which inhibition is half-maximal. A high value points to weaker potency.

Data set [1] deals with T1, rat liver TrxR1 (cytosolic thioredoxin reductase) (Rattus norvegicus, UniProt O89049).
T1 sequence (O89049 1-499): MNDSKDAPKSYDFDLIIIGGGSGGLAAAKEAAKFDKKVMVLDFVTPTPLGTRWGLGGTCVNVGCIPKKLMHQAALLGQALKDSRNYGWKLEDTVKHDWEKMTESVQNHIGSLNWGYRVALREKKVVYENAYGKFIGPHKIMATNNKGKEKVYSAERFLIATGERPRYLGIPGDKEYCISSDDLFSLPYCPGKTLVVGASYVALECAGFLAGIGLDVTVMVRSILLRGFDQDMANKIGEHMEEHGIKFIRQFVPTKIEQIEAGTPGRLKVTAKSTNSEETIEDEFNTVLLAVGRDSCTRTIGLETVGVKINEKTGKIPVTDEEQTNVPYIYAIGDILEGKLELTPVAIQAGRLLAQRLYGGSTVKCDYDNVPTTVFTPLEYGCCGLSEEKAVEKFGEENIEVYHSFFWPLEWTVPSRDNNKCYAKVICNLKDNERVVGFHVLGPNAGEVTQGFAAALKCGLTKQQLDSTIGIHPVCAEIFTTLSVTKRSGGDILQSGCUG
Put plainly: DTNB reduction, absorbance […] nm. The format is biochemical.

Data set [2] has as its target rat liver TrxR2 (mitochondrial thioredoxin reductase) (Rattus norvegicus, UniProt Q9Z0J5). Put plainly: DTNB reduction, absorbance […] nm. The format is biochemical.

rat liver TrxR2 (mitochondrial thioredoxin reductase), sequence (Q9Z0J5 37-526): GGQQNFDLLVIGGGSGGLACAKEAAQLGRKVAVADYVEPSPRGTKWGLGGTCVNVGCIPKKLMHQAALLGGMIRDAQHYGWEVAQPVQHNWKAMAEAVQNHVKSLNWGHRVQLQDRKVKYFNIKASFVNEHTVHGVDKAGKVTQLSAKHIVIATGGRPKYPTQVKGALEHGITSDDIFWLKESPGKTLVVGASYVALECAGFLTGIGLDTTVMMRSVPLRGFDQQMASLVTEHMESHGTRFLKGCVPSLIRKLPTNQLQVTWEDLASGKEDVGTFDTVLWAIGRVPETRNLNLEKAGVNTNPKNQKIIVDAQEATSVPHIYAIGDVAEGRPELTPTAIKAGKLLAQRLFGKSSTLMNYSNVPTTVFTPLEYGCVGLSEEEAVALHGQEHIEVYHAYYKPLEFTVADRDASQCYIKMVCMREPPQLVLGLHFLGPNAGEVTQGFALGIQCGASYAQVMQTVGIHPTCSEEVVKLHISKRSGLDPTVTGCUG

For the compound `[NH2][Pt]([NH2])([Cl])[Cl]` [cisplatin], the IC50 in data set [1] is 22.5 nM; in data set [2], 405 nM.
On to trans-[PtBr2(NHBz2)(PPh3)] [compound 2], for which the IC50 in data set [1] was 2.59 nM.
As for “trans-[PtBr2(NHBzBu)(PPh3)] [compound 1]”, the IC50 in data set [1] was found to be 2.27 nM.
